The target of the assay is T1, FLT3 (h) (Homo sapiens, UniProt P36888).
T1 construct: purchased Millipore UK Ltd (contract assay service)
T1 sequence (P36888 27-993): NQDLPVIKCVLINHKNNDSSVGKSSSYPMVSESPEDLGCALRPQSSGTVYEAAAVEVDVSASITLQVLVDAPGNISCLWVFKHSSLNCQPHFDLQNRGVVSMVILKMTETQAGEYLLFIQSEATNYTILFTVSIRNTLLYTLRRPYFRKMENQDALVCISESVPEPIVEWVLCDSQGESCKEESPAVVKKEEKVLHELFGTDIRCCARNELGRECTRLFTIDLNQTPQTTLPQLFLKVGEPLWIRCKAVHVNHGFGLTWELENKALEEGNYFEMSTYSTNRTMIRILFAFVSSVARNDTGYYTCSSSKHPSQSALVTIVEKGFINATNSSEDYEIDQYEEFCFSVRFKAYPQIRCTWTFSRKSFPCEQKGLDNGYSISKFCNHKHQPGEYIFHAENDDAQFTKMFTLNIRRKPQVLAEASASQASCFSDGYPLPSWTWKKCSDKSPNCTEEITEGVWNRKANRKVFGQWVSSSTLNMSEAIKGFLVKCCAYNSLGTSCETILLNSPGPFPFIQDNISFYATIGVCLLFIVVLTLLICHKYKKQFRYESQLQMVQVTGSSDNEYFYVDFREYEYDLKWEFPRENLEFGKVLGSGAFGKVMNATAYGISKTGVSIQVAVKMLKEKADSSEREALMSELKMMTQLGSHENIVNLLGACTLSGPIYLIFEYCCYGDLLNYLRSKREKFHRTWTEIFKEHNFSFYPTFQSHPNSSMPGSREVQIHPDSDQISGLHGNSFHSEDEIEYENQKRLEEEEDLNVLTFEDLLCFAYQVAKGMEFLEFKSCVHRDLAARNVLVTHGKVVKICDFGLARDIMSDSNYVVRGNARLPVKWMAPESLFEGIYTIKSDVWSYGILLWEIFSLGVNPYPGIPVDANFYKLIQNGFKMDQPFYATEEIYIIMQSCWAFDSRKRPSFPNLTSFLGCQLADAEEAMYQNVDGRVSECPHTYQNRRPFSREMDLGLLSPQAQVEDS
In words: FLT3 (h) kinase assay. Format: biochemical. As for the experimental part:
Kinase assays can be performed by measurement of incorporation of γ-^33P ATP into immobilized myelin basic protein (MBP). High binding white 384 well plates (Greiner) are coated with MBP (Sigma #M-1891) by incubation of 60 μL/well of 20 μg/mL MBP in Tris-buffered saline (TBS; 50 mM Tris pH 8.0, 138 mM NaCl, 2.7 mM KCl) for 24 h at 4° C. Plates are washed 3× with 100 μL TBS. Kinase reactions are carried out in a total volume of 34 μL in kinase buffer (according to the need to make, for example, 5 mM Hepes pH 7.6, 15 mM NaCl, 0.01% bovine gamma globulin (Sigma #1-5506), 10 mM MgCl2, 1 mM DTT, 0.02% TritonX-100). Compound dilutions are performed in DMSO and added to assay wells to a final DMSO concentration of 1%. Each data point is measured in duplicate, and at least two duplicate assays are performed for each individual compound determination. […] A mixture of unlabeled ATP and γ-^33P ATP is added to start the reaction (2×10^6 cpm of γ-^33P ATP per well (3000 Ci/mmole) and 10 μM unlabeled ATP, typically. The reactions are carried out for 1 h at room temperature with shaking. Plates are washed 7× with TBS, followed by the addition of 50 µL/well scintillation fluid (Wallac). Plates are read using a Wallac Trilux counter. This is only one format of such assays; various other formats are possible, as known to one skilled in the art. […]

The structures appear in SMILES notation.

Broadly, the IC50 is the point on the concentration scale where inhibition reaches its midpoint. Low readings indicate higher potency, high ones lower potency. As for `CC(C)CS(=O)(=O)N[C@H]1COC2C1OC[C@H]2Nc1nc(Nc2cnn(C)c2)ncc1Cl` (stereo partly drawn) [Ex. 2, N-((3S,6R)-6-((5-chloro-2-((1-methyl-1H-pyrazol-4-yl)amino)pyrimidin-4-yl)amino)hexahydrofuro[3,2-b]furan-3-yl)-2-methylpropane-1-sulfonamide], the concentration for half-maximal inhibition (IC50) came out at 0.846 µM.

Source of the values: patent US20170081338A1, “SUBSTITUTED HETEROARYL COMPOUNDS AND METHODS OF USE” (Sunshine Lake Pharma Co., Ltd., priority 2015, published 2017).
